According to patent publication US11040981B2, “Pyrrolotriazine compounds and methods of inhibiting TAM kinases” (Syros Pharmaceuticals, Inc., priority 2017, dated 2021):
Where a name gives a salt, the structure may show the parent alone.

Legend:
FLT3 = biological target: T1, FLT3 (Homo sapiens, UniProt P36888); test: TR-FRET kinase activity assay, FLT3; assay type: biochemical; settings: ATP at Km, 60 minutes
T1 sequence (P36888 27-993): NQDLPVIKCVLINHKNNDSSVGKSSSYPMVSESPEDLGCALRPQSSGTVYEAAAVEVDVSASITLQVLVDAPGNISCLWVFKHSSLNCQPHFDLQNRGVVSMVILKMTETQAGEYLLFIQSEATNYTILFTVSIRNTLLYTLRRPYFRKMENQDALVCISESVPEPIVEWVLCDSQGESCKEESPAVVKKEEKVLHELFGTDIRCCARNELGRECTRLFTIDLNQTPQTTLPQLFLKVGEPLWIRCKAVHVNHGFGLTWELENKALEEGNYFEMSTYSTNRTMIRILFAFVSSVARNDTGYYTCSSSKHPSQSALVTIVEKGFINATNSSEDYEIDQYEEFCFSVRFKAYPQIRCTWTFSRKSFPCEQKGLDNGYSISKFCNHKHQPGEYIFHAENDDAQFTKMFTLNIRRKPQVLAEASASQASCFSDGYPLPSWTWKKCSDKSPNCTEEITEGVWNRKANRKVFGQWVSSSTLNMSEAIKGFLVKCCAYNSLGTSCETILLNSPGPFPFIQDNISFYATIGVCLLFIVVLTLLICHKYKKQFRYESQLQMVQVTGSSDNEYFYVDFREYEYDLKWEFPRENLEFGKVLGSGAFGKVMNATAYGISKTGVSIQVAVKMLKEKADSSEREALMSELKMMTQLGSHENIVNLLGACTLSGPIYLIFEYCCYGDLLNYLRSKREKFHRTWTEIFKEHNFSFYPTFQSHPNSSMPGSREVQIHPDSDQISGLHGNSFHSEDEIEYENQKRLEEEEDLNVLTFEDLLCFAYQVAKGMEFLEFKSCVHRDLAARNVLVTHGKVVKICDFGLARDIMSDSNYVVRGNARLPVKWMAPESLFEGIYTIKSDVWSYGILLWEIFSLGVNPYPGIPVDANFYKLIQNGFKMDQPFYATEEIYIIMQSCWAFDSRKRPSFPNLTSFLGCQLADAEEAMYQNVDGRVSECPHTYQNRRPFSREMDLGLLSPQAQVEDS
Summary of the method: (§1)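 Enzyme + labelled peptide + cpd premixed; ATP at per-enzyme Km starts rxn. 60 min RT, HEPES pH 7.5/MgCl2/EGTA/Brij 35/DTT buffer. Stop 12.5 mM EDTA, Eu phospho-Ab 30 min dark, TR-FRET read → IC50.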

AXL = biological target: T2, AXL (Homo sapiens, UniProt P30530); test: TR-FRET kinase activity assay, AXL; assay type: biochemical; settings: ATP at Km, 60 minutes
T2 sequence (P30530 26-894): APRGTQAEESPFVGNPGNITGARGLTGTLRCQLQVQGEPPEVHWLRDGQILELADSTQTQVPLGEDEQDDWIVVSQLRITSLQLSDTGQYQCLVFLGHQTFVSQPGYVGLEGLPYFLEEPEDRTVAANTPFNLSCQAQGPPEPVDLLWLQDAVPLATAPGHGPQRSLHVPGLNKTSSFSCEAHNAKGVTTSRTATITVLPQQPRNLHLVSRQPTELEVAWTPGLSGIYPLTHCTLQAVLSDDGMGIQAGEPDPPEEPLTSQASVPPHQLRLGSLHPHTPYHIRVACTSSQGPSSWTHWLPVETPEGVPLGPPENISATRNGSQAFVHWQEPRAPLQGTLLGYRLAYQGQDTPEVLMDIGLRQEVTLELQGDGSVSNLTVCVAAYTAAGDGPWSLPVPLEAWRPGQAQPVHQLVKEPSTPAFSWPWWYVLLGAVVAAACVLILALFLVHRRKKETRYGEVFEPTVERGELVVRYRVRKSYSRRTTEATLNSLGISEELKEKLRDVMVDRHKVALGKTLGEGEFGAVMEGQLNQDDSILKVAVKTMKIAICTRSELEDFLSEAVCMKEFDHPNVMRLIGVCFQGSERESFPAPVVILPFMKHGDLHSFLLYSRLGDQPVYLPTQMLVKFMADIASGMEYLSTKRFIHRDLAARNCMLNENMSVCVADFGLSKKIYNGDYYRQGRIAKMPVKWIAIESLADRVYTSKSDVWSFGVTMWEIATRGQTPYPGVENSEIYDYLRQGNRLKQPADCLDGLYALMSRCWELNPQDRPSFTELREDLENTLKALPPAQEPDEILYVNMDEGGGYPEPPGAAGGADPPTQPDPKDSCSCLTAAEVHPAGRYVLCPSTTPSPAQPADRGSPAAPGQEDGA
Summary of the method: as §1

| SMILES | IC50 (FLT3) [nM] | IC50 (AXL) [nM] |
| --- | --- | --- |
| COC[C@H](C)Nc1ncc2c(-c3ccnc(C)c3)cc(C3CCC4(CC3)NC(=O)NC4=O)n2n1 (mixture of isomers) [Compound 325, (S)-8-(2-((1-methoxypropan-2-yl)amino)-5-(2-methylpyridin-4-yl)pyrrolo[2,1-f][1,2,4]triazin-7-yl)-1,3-diazaspiro[4.5]decane-2,4-dione] | 1000 to 10000 | ≤ 100 |
| CCCCC[C@H](C)Nc1ncc2c(C3=CC[C@@H](C(=O)N4CCOCC4)CC3)cc([C@H]3CC[C@H](O)CC3)n2n1 [Compound 113] | 100 to 1000 | ≤ 100 |
| CCCCC[C@H](C)Nc1ncc2c(N3CCNCC3)cc([C@H]3CC[C@H](O)CC3)n2n1 [Compound 114] | 100 to 1000 | ≤ 100 |
| CCCCC[C@H](C)Nc1ncc2c(N3CCC(N(C)C)CC3)cc(C3CCC(O)CC3)n2n1.Cl (stereo partly drawn) [Compound 115, 4-[5-[4-(dimethylamino)-1-piperidyl]-2-[[(1S)-1-methylhexyl]amino]pyrrolo[2,1-f][1,2,4]triazin-7-yl]cyclohexanol hydrochloride] | 1000 to 10000 | 100 to 1000 |
| CCCCC[C@H](C)Nc1ncc2c(C3CCNCC3)cc([C@H]3CC[C@H](O)CC3)n2n1 [Compound 116, (1S,4r)-4-(2-((S)-heptan-2-ylamino)-5-(piperidin-4-yl)pyrrolo[2,1-f][1,2,4]triazin-7-yl)cyclohexanol hydrochloride] | 100 to 1000 | ≤ 100 |
| CCCCC[C@H](C)Nc1ncc2c(N3CCC(C(=O)O)CC3)cc([C@H]3CC[C@H](O)CC3)n2n1 [Compound 117] | 1000 to 10000 | 100 to 1000 |
| CC[C@H](C)Nc1ncc2c(-c3ccc(CN4CCN(C)CC4)cc3)cc([C@H]3CC[C@H](O)CC3)n2n1 [Compound 118] | ≤ 100 | ≤ 100 |
| CNS(=O)(=O)c1cncc(-c2cc([C@H]3CC[C@H](O)CC3)n3nc(N[C@@H](C)COC)ncc23)c1 [Compound 272] | 100 to 1000 | 100 to 1000 |
| CC(CC(F)(F)F)Nc1ncc2c(-c3cncc(S(C)(=O)=O)c3)cc(C3CCC(O)CC3)n2n1 (stereo not shown) [Compound 273] | 100 to 1000 | ≤ 100 |
| COCCn1cc(-c2cc([C@H]3CC[C@H](O)CC3)n3nc(N[C@@H](C)COC(F)F)ncc23)cn1 [Compound 274] | ≤ 100 | ≤ 100 |
| CNS(=O)(=O)c1cncc(-c2cc([C@H]3CC[C@H](O)CC3)n3nc(N[C@@H](C)COC(F)F)ncc23)c1 [Compound 275] | 1000 to 10000 | ≤ 100 |
| C[C@@H](CC(F)(F)F)Nc1ncc2c(-c3cn[nH]c3)cc([C@H]3CC[C@H](O)CC3)n2n1 [Compound 276] | 100 to 1000 | ≤ 100 |
| COC[C@H](C)Nc1ncc2c(-c3cnn(Cc4nnc(C)o4)c3)cc([C@H]3CC[C@H](O)CC3)n2n1 [Compound 277] | ≤ 100 | ≤ 100 |
| CNS(=O)(=O)c1cncc(-c2cc([C@H]3CC[C@H](O)CC3)n3nc(N[C@@H](C)CC(F)(F)F)ncc23)c1 [Compound 278] | 100 to 1000 | ≤ 100 |
| COC[C@H](C)Nc1ncc2c(-c3ccc(S(C)(=O)=O)nc3)cc([C@H]3CC[C@H](O)CC3)n2n1 [Compound 279] | 100 to 1000 | ≤ 100 |
| COC[C@H](C)Nc1ncc2c(-c3cnn(CCS(C)(=O)=O)c3)cc([C@H]3CC[C@H](O)CC3)n2n1 [Compound 280] | 100 to 1000 | ≤ 100 |
| COC[C@H](C)Nc1ncc2c(-c3cnn(Cc4ccnnc4)c3)cc([C@H]3CC[C@H](O)CC3)n2n1 [Compound 281] | ≤ 100 | ≤ 100 |
| COC[C@H](C)Nc1ncc2c(-c3cnn(C(C)(C)C(=O)N4CCOCC4)c3)cc([C@H]3CC[C@H](O)CC3)n2n1 [Compound 282] | 100 to 1000 | ≤ 100 |

| SMILES | IC50 (FLT3) [nM] | IC50 (AXL) [nM] |
| --- | --- | --- |
| COC[C@H](C)Nc1ncc2c(-c3cnn(C(C)(C)C(=O)N4CCC4)c3)cc([C@H]3CC[C@H](O)CC3)n2n1 [Compound 283] | 1000 to 10000 | ≤ 100 |
| COC[C@H](C)Nc1ncc2c(-c3cnn(C(C)(C)C(=O)O)c3)cc([C@H]3CC[C@H](O)CC3)n2n1 [Compound 284] | 1000 to 10000 | 100 to 1000 |
| COC[C@H](C)Nc1ncc2c(-c3cnn(Cc4noc(C)n4)c3)cc([C@H]3CC[C@H](O)CC3)n2n1 [Compound 285] | 100 to 1000 | ≤ 100 |
| COC[C@H](C)Nc1ncc2c(-c3cnn(C4CN(C(C)=O)C4)c3)cc([C@H]3CC[C@H](O)CC3)n2n1 [Compound 286] | ≤ 100 | ≤ 100 |
| COC[C@H](C)Nc1ncc2c(-c3cnn(C4CC(S(C)(=O)=O)C4)c3)cc([C@H]3CC[C@H](O)CC3)n2n1 (stereo partly shown) [Compound 287] | ≤ 100 | ≤ 100 |
| C[C@@H](CC(F)(F)F)Nc1ncc2c(-c3cnn(CCS(C)(=O)=O)c3)cc([C@H]3CC[C@H](O)CC3)n2n1 [Compound 288] | ≤ 100 | ≤ 100 |
| C[C@@H](CC(F)(F)F)Nc1ncc2c(-c3cnn([C@@H]4CCOC4)c3)cc([C@H]3CC[C@H](O)CC3)n2n1 [Compound 289] | ≤ 100 | ≤ 100 |
| C[C@@H](CC(F)(F)F)Nc1ncc2c(-c3cnn([C@H]4CCOC4)c3)cc([C@H]3CC[C@H](O)CC3)n2n1 [Compound 290] | ≤ 100 | ≤ 100 |
| COC[C@H](C)Nc1ncc2c(-c3cnn(C4CN(CCC(F)(F)F)C4)c3)cc([C@H]3CC[C@H](O)CC3)n2n1 [Compound 291] | 100 to 1000 | ≤ 100 |
| COC[C@H](C)Nc1ncc2c(-c3cnn(Cc4nc(C)no4)c3)cc([C@H]3CC[C@H](O)CC3)n2n1 [Compound 292] | 100 to 1000 | ≤ 100 |
| COC[C@H](C)Nc1ncc2c(-c3cnn(C4CN(C(=O)C5COC5)C4)c3)cc([C@H]3CC[C@H](O)CC3)n2n1 [Compound 293] | 100 to 1000 | ≤ 100 |
| COC[C@H](C)Nc1ncc2c(-c3cnn(C4CN(C(=O)C5(C(F)(F)F)CC5)C4)c3)cc([C@H]3CC[C@H](O)CC3)n2n1 [Compound 294] | ≤ 100 | ≤ 100 |
| CNC(=O)C(C)(C)n1cc(-c2cc([C@H]3CC[C@H](O)CC3)n3nc(N[C@@H](C)COC)ncc23)cn1 [Compound 295] | 1000 to 10000 | ≤ 100 |
| Cc1nnc(Cn2cc(-c3cc([C@H]4CC[C@H](O)CC4)n4nc(N[C@@H](C)CC(F)(F)F)ncc34)cn2)o1 [Compound 296] | ≤ 100 | ≤ 100 |
| C[C@@H](CC(F)(F)F)Nc1ncc2c(-c3ccc(S(C)(=O)=O)nc3)cc([C@H]3CC[C@H](O)CC3)n2n1 [Compound 297] | ≤ 100 | ≤ 100 |
| C[C@@H](CC(F)(F)F)Nc1ncc2c(-c3cncc(C(=O)O)c3)cc([C@H]3CC[C@H](O)CC3)n2n1 [Compound 298] | 1000 to 10000 | ≤ 100 |
| CC(CC(F)(F)F)Nc1ncc2c(-c3cnc(C(=O)O)nc3)cc(C3CCC(O)CC3)n2n1 (stereo not shown) [Compound 299] | 1000 to 10000 | ≤ 100 |
